Results on 14 molecules are retold here after patent publication US9758524B2, “4-imidazopyridazin-1-yl-benzamides as Btk inhibitors” (Merck Sharp & Dohme B.V., priority 2011, dated 2017).

One assay concerns the target FynT enzyme (Homo sapiens (Human), UniProt P06241). Description: FynT enzyme activity (IMAP fluorescence polarization assay). The format is biochemical. The following applies: 60 min pre-incubation, 0.2 μM ATP. Put shortly:
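Human FynT pre-incubated with compounds 60 min at room temperature, then reacted 2 h at room temperature with fluorescein-labelled p34cdc2 peptide (100 nM final). Stopped with IMAP binding solution; fluorescence polarization read after 60 min. Activity as % of ±ATP control difference; EC50 by curve fitting.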
(Polarisation of emitted light reports the rotation of a fluorescent probe.)

For the next assay, the target named is Btk enzyme (His-Btk) (Homo sapiens (Human), UniProt Q06187). The experiment in a line: Btk enzyme activity (IMAP fluorescence polarization assay).
Sequence of Btk enzyme (His-Btk) (Q06187 whole entry): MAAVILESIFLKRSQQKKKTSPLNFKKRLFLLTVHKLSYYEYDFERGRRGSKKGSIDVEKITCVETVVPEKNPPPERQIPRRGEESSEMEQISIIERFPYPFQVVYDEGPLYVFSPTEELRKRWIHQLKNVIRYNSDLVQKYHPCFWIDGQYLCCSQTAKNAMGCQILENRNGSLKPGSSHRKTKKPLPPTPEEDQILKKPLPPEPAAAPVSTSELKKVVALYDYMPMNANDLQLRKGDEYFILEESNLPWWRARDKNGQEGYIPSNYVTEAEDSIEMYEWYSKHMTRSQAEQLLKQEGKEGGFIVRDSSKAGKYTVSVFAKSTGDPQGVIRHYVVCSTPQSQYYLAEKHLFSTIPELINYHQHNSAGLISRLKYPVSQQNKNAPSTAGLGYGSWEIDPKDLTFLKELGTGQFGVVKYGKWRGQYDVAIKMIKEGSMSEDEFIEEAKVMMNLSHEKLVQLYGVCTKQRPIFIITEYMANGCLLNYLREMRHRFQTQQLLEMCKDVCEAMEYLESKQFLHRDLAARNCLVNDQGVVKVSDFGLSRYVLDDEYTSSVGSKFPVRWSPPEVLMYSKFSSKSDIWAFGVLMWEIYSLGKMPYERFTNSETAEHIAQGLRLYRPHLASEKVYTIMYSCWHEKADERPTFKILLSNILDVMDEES
For another assay, the target named is Lck enzyme (Homo sapiens (Human), UniProt P06239). The experiment in a line: Lck enzyme activity (IMAP fluorescence polarization assay). The following applies: read-out: EC50 Lck activity values; IMAP, 60 min pre-incubation, 6 μM ATP; bin bound in μM.
Sequence of Lck enzyme (P06239 whole entry): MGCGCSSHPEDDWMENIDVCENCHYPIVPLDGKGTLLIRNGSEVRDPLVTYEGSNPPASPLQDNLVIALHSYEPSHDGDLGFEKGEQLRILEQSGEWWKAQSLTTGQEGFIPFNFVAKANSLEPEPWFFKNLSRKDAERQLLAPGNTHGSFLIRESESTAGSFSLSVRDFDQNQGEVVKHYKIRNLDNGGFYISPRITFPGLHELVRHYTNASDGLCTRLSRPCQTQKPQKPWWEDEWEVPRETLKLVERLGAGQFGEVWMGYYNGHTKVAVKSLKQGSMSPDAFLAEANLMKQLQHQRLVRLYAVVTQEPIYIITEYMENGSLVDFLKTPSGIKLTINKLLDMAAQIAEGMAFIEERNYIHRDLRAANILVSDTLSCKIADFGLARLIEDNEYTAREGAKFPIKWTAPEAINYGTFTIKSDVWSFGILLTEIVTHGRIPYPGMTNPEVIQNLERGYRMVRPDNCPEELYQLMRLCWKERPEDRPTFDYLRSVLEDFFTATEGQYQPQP
A further assay concerns the target Src enzyme (Homo sapiens (Human), UniProt P12931). The experiment in a line: Src enzyme activity (IMAP fluorescence polarization assay). The following applies: read-out: EC50 Src activity values; IMAP, 60 min pre-incubation, 4 μM ATP.
For the next assay, the target named is Lyn enzyme (Homo sapiens (Human), UniProt P07948). Description: Lyn enzyme activity (IMAP fluorescence polarization assay).
Sequence of Lyn enzyme (P07948 whole entry): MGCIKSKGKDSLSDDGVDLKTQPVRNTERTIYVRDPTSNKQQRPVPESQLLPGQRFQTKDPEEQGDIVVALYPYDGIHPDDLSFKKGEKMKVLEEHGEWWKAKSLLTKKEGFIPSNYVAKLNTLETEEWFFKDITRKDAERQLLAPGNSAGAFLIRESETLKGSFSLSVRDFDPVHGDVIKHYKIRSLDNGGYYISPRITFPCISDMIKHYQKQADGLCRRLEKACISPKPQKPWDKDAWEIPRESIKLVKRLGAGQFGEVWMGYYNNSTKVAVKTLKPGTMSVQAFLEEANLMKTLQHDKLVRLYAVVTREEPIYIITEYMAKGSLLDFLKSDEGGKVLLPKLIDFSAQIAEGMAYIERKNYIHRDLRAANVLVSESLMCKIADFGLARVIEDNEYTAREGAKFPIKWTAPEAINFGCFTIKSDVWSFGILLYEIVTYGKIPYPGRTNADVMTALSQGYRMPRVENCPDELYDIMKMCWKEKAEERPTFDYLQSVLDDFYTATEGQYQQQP
[1] abbreviates: IMAP, 60 min pre-incubation, 5 μM ATP, bin bound in nM.
Setting [2] is: read-out: EC50 Lyn activity values, 60 min pre-incubation, 2 μM ATP, bin bound in μM.
Where [3] appears, read: read-out: EC50 Btk activity values, IMAP, 60 min pre-incubation, 5 μM ATP, bin bound in nM.

Where two headings read alike, the source gives them in different places.

Sequence of FynT enzyme (P06241 other isoform, or with tags, fused parts or gaps): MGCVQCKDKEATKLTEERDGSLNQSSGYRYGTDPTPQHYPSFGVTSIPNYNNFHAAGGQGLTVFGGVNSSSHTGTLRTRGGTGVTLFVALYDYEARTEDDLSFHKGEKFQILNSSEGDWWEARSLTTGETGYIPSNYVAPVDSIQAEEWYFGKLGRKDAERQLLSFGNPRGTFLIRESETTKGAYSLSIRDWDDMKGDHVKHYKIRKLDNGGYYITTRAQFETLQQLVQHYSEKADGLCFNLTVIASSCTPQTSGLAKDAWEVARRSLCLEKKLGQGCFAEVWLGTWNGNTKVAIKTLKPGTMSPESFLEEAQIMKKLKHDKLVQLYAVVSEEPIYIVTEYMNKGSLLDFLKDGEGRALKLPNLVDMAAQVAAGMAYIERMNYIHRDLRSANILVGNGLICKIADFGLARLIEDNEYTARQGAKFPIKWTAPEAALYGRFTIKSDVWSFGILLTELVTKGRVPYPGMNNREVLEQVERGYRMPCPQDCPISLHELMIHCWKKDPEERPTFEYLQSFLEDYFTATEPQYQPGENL
Sequence of Src enzyme (P12931 whole entry, looked up): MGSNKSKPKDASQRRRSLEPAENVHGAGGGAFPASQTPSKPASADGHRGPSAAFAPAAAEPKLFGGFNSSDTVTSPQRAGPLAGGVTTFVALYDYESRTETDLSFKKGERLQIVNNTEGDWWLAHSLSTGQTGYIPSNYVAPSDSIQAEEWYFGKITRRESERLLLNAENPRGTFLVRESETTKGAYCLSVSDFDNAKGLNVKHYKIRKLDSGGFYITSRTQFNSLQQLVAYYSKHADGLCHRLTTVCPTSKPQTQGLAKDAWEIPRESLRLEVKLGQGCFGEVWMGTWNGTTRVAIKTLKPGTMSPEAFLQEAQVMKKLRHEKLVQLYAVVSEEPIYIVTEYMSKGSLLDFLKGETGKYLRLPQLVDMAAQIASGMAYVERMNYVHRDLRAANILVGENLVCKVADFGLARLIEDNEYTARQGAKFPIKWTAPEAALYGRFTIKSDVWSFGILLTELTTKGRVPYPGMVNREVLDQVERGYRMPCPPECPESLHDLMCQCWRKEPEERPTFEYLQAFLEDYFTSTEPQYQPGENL

Broadly, the EC50 is the midpoint of the concentration-response curve. In the case of `COC/C=C/C(=O)N1CCCCC[C@H]1c1nc(-c2ccc(C(=O)Nc3ccccn3)cc2)c2c(N)nccn12` [Example 97, (E)-4-(8-amino-3-(1-(4-methoxybut-2-enoyl)azepan-2-yl)imidazo[1,5-a]pyrazin-1-yl)-N-(pyridin-2-yl)benzamide], the EC50 is no less than 1000 nM at FynT enzyme; 10 to 100 nM at Btk enzyme (His-Btk); no less than 1 µM on Lck enzyme; no less than 1000 nM on Src enzyme; no less than 1 µM at Lyn enzyme (setting [2]). Also, the “EC50 Btk activity values” at Btk enzyme (His-Btk) (setting [1]) is reported as less than 100 nM.
`COC/C=C/C(=O)N(C)[C@@H](C)c1nc(-c2ccc(C(=O)Nc3cc(C(F)(F)F)ccn3)cc2)c2c(N)nccn12` [Example 75, (S,E)-4-(8-amino-3-(1-(4-methoxy-N-methylbut-2-enamido)ethyl)imidazo[1,5-a]pyrazin-1-yl)-N-(4-(trifluoromethyl)pyridin-2-yl)benzamide]: the EC50 at FynT enzyme was no less than 1000 nM; at Btk enzyme (His-Btk) (setting [3]) it was less than 10 nM; at Lck enzyme, no less than 1 µM; on Src enzyme, no less than 1000 nM; at Lyn enzyme (setting [2]) it was no less than 1 µM.
As to `COC/C=C/C(=O)N1CCC[C@H]1c1nc(-c2ccc(C(=O)Nc3ccccn3)c(OC)c2)c2c(N)nccn12` [Example 103, (S,E)-4-(8-amino-3-(1-(4-methoxybut-2-enoyl)pyrrolidin-2-yl)imidazo[1,5-a]pyrazin-1-yl)-2-methoxy-N-(pyridin-2-yl)benzamide], the 50% effective concentration (EC50) is no less than 1000 nM on FynT enzyme; 10 to 100 nM on Btk enzyme (His-Btk); no less than 1 µM on Lck enzyme; no less than 1000 nM at Src enzyme; no less than 1 µM at Lyn enzyme (setting [2]). Further, on Btk enzyme (His-Btk) (setting [1]), the “EC50 Btk activity values” is reported as less than 100 nM.
Regarding `COc1cc(-c2nc([C@@H]3CCCN3C(=O)c3ccnc(Cl)n3)n3ccnc(N)c23)ccc1C(=O)Nc1ccccn1` [Example 83, (S)-4-(8-amino-3-(1-(2-chloropyrimidine-4-carbonyl)pyrrolidin-2-yl)imidazo[1,5-a]pyrazin-1-yl)-2-methoxy-N-(pyridin-2-yl)benzamide], the EC50 was no less than 1000 nM at FynT enzyme; 10 to 100 nM on Btk enzyme (His-Btk); no less than 1 µM on Lck enzyme; no less than 1000 nM on Src enzyme; no less than 1 µM on Lyn enzyme (setting [2]). Further, at Btk enzyme (His-Btk) (setting [1]), the “EC50 Btk activity values” is given as less than 100 nM.
For `CC#CC(=O)N1CCCC[C@H]1c1nc(-c2ccc(C(=O)Nc3cccnn3)cc2)c2c(N)nccn12` [Example 23, (S)-4-(8-Amino-3-(1-but-2-ynoylpiperidin-2-yl)imidazo[1,5-a]pyrazin-1-yl)-N-(pyridazin-3-yl)benzamide], the EC50 on FynT enzyme is no less than 1000 nM; at Btk enzyme (His-Btk) (setting [3]), less than 10 nM; at Lck enzyme, no less than 1 µM; at Src enzyme, no less than 1000 nM; on Lyn enzyme (setting [2]), no less than 1 µM.
Turning to `COC/C=C/C(=O)N1CCC[C@H]1c1nc(-c2ccc(C(=O)Nc3nc4c(s3)CCCC4)cc2)c2c(N)nccn12` [Example 82, (S,E)-4-(8-amino-3-(1-(4-methoxybut-2-enoyl)pyrrolidin-2-yl)imidazo[1,5-a]pyrazin-1-yl)-N-(4,5,6,7-tetrahydrobenzo[d]thiazol-2-yl)benzamide], the EC50 at FynT enzyme is no less than 1000 nM; at Btk enzyme (His-Btk), 10 to 100 nM; at Lck enzyme, no less than 1 µM; on Src enzyme, no less than 1000 nM; on Lyn enzyme (setting [2]) it was no less than 1 µM. The “EC50 Btk activity values” on Btk enzyme (His-Btk) (setting [1]) is given as less than 100 nM.
As to `CC#CC(=O)N1CCC[C@H]1c1nc(-c2ccc(C(=O)Nc3cc(C(C)C)ccn3)cc2)c2c(N)nccn12` [Example 102, (S)-4-(8-amino-3-(1-but-2-ynoylpyrrolidin-2-yl)imidazo[1,5-a]pyrazin-1-yl)-N-(4-isopropylpyridin-2-yl)benzamide], the EC50 on FynT enzyme was no less than 1000 nM; at Btk enzyme (His-Btk) (setting [3]) it was less than 10 nM; at Lck enzyme, no less than 1 µM; at Src enzyme, no less than 1000 nM; on Lyn enzyme (setting [2]), no less than 1 µM.
Consider `C=CC(=O)N1CCCC[C@H]1c1nc(-c2ccc(C(=O)Nc3ccccn3)cc2)c2c(N)nccn12` [Example 46, (S)-4-(3-(1-acryloylpiperidin-2-yl)-8-aminoimidazo[1,5-a]pyrazin-1-yl)-N-(pyridin-2-yl)benzamide], for which the EC50 was no less than 1000 nM on FynT enzyme; less than 10 nM on Btk enzyme (His-Btk) (setting [3]); no less than 1 µM on Lck enzyme; no less than 1000 nM at Src enzyme; no less than 1 µM on Lyn enzyme (setting [2]).
For `CC#CC(=O)N1CCCC[C@H]1c1nc(-c2ccc(C(=O)Nc3nccc(C)n3)cc2)c2c(N)nccn12` [Example 89, (S)-4-(8-amino-3-(1-but-2-ynoylpiperidin-2-yl)imidazo[1,5-a]pyrazin-1-yl)-N-(4-methylpyrimidin-2-yl)benzamide], the EC50 at FynT enzyme is no less than 1000 nM; on Btk enzyme (His-Btk), 10 to 100 nM; at Lck enzyme, no less than 1 µM; at Src enzyme, no less than 1000 nM; at Lyn enzyme (EC50 Lyn activity values, 60 min pre-incubation, 2 μM ATP, bin bound in μM), no less than 1 µM. Further, the “EC50 Btk activity values” at Btk enzyme (His-Btk) (setting [1]) is reported as less than 100 nM.
On to `CCCc1ccnc(NC(=O)c2ccc(-c3nc([C@@H]4CCCCN4C(=O)/C=C/COC)n4ccnc(N)c34)cc2)c1` [Example 121, (S,E)-4-(8-amino-3-(1-(4-methoxybut-2-enoyl)piperidin-2-yl)imidazo[1,5-a]pyrazin-1-yl)-N-(4-propylpyridin-2-yl)benzamide], for which the concentration giving a half-maximal response (EC50) was no less than 1000 nM at FynT enzyme; less than 10 nM on Btk enzyme (His-Btk) (setting [3]); no less than 1 µM on Lck enzyme; no less than 1000 nM on Src enzyme; no less than 1 µM at Lyn enzyme (setting [2]).
Turning to `C=C(C)C(=O)N1CCC[C@H]1c1nc(-c2ccc(C(=O)Nc3ccccn3)cc2)c2c(N)nccn12` [Example 91, (S)-4-(8-amino-3-(1-methacryloylpyrrolidin-2-yl)imidazo[1,5-a]pyrazin-1-yl)-N-(pyridin-2-yl)benzamide], the concentration for a half-maximal effect (EC50) on FynT enzyme was no less than 1000 nM; on Btk enzyme (His-Btk) (read-out: EC50 Btk activity values, IMAP, 60 min pre-incubation, 5 μM ATP, bin bound in μM), no less than 1000 nM; on Lck enzyme it was no less than 1 µM; at Src enzyme it was no less than 1000 nM; at Lyn enzyme (setting [2]) it was no less than 1 µM.
As for `COC/C=C/C(=O)N1CCC[C@H]1c1nc(-c2ccc(C(=O)Nc3cc(C#N)ccn3)cc2)c2c(N)nccn12` [Example 98, (S,E)-4-(8-amino-3-(1-(4-methoxybut-2-enoyl)pyrrolidin-2-yl)imidazo[1,5-a]pyrazin-1-yl)-N-(4-cyanopyridin-2-yl)benzamide], the half-maximal effective concentration (EC50) at FynT enzyme was no less than 1000 nM; on Btk enzyme (His-Btk), 10 to 100 nM; on Lck enzyme, no less than 1 µM; at Src enzyme it was no less than 1000 nM; on Lyn enzyme (setting [2]) it was no less than 1 µM. For the same molecule, at Btk enzyme (His-Btk) (setting [1]), the “EC50 Btk activity values” is reported as less than 100 nM.
As for `CC#CC(=O)N1CCCC[C@H]1c1nc(-c2ccc(C(=O)Nc3cc(F)ccn3)cc2)c2c(N)nccn12` [Example 44, (S)-4-(8-amino-3-(1-but-2-ynoylpiperidin-2-yl)imidazo[1,5-a]pyrazin-1-yl)-N-(4-fluoropyridin-2-yl)benzamide], the 50% effective concentration (EC50) is no less than 1000 nM at FynT enzyme; less than 10 nM on Btk enzyme (His-Btk) (setting [3]); no less than 1 µM on Lck enzyme; no less than 1000 nM on Src enzyme; no less than 1 µM at Lyn enzyme (setting [2]).
As to `CN(C)C/C=C/C(=O)N1CCC[C@H]1c1nc(-c2ccc(C(=O)Nc3nccs3)cc2)c2c(N)nccn12` [Example 15, (S,E)-4-(8-Amino-3-(1-(4-(dimethylamino)but-2-enoyl)pyrrolidin-2-yl)imidazo[1,5-a]pyrazin-1-yl)-N-(thiazol-2-yl)benzamide], the EC50 on FynT enzyme is no less than 1000 nM; on Btk enzyme (His-Btk) (setting [3]), less than 10 nM; at Lck enzyme it was no less than 1 µM; at Src enzyme it was no less than 1000 nM; on Lyn enzyme (setting [2]), no less than 1 µM.
